According to patent US5159077A, “Penam antibacterial compounds” (Hoffmann-La Roche Inc., priority 1989, dated 1992):
In brackets after ≈: the same amount, converted by molar mass. Counter-ions that a name gives are not always drawn. Like-named read-outs stand apart in the source and are kept apart here.

Key:
[1] = tested on: Streptococcus 82; assay: In vitro MIC, Agar Well Diffusion Method; assay type: cell-based, Streptococcus aureus
Protocol: (§1) In vitro antimicrobial activity was determined in BBL seed agar. Serial dilutions of the test compound were pipetted into agar wells (80 μL per well). […] For reference, see A. H. Litton, Antibiotics: Assessment of Antimicrobial Activity and Resistance, Academic Press, New York, pages 19-30 (1983).

[2] = tested on: Serratia marcescens SM; assay: In vitro MIC, Agar Well Diffusion Method; assay type: cell-based; conditions: read-out: In Vitro MIC
Protocol: as §1

[3] = tested on: Proteus vulgaris 101N; assay: In vitro MIC, Agar Well Diffusion Method; assay type: cell-based; conditions: read-out: In Vitro MIC
Protocol: as §1

[4] = tested on: Pseudomonas aeruginosa B; assay: In vitro MIC, Agar Well Diffusion Method; assay type: cell-based; conditions: read-out: In Vitro MIC
Protocol: as §1

[5] = tested on: Klebsiella pneumoniae 369; assay: In vitro MIC, Agar Well Diffusion Method; assay type: cell-based
Protocol: as §1

[6] = tested on: Streptococcus faecium ATCC 8043; assay: In vitro MIC, Agar Well Diffusion Method; assay type: cell-based; conditions: Enterococcus faecium
Protocol: as §1

[7] = tested on: Enterobacter cloacae 2952B; assay: In vitro MIC, Agar Well Diffusion Method; assay type: cell-based; conditions: read-out: In Vitro MIC
Protocol: as §1

[8] = tested on: Escherichia coli 1269B; assay: In vitro MIC, Agar Well Diffusion Method; assay type: cell-based; conditions: read-out: In Vitro MIC
Protocol: as §1

[9] = tested on: Micrococcus luteus PCl; assay: In vitro MIC, Agar Well Diffusion Method; assay type: cell-based; conditions: read-out: In Vitro MIC
Protocol: as §1

[10] = tested on: Pseudomonas aeruginosa 56; assay: In vitro MIC, Agar Well Diffusion Method; assay type: cell-based
Protocol: as §1

[11] = tested on: Escherichia coli TEM-1; assay: In vitro MIC, Broth Dilution Method; assay type: cell-based; conditions: TEM1, read-out: In Vitro MIC
Protocol: (§2) The diluted agents prepared in Mueller-Hinton broth were dispensed from a Dynatech MIC 2000 machine, in 100 microliter (μL) volumes into 96 well trays and used immediately or frozen at -10° to -70° C. until needed. Using a Dynatech inoculator and inoculum trays, 1.5 μL of a 10^-2 dilution of an overnight culture was added to each well of the tray. The tops of the trays were then sealed with tape, and the trays were incubated overnight at 37° C. and then examined with a viewer. The lowest concentration at which no growth was observed was considered to be the minimum inhibitory concentration (MIC).

[12] = tested on: Enterobacter cloacae 5699; assay: In vitro MIC, Broth Dilution Method; assay type: cell-based
Protocol: as §2

[13] = tested on: Serratia marcescens SM; assay: In vitro MIC, Broth Dilution Method; assay type: cell-based; conditions: read-out: In Vitro MIC
Protocol: as §2

[14] = tested on: Streptococcus pneumoniae 6301; assay: In vitro MIC, Broth Dilution Method; assay type: cell-based
Protocol: as §2

[15] = tested on: Proteus mirabilis 2; assay: In vitro MIC, Broth Dilution Method; assay type: cell-based
Protocol: as §2

[16] = tested on: Proteus mirabilis 90; assay: In vitro MIC, Broth Dilution Method; assay type: cell-based
Protocol: as §2

[17] = tested on: Streptococcus faecalis ATCC 29212; assay: In vitro MIC, Broth Dilution Method; assay type: cell-based; conditions: Enterococcus faecalis, ATCC29212; Broth Dilution Method; Streptococcus faecalis ATCC 29212; read-out: In Vitro MIC
Protocol: as §2

[18] = tested on: Enterobacter cloacae P99; assay: In vitro MIC, Broth Dilution Method; assay type: cell-based; conditions: P99, read-out: In Vitro MIC
Protocol: as §2

[19] = tested on: Proteus vulgaris ATCC 6380; assay: In vitro MIC, Broth Dilution Method; assay type: cell-based; conditions: Proteus vulgaris, ATCC6380, read-out: In Vitro MIC
Protocol: as §2

[20] = tested on: Pseudomonas aeruginosa ATCC 27853; assay: In vitro MIC, Broth Dilution Method; assay type: cell-based; conditions: ATCC27853; Broth Dilution Method; Pseudomonas aeruginosa ATCC 27853; read-out: In Vitro MIC
Protocol: as §2

[21] = tested on: Citrobacter freundii BS-16; assay: In vitro MIC, Broth Dilution Method; assay type: cell-based; conditions: BS16; Broth Dilution Method; Citrobacter freundii BS-16; read-out: In Vitro MIC
Protocol: as §2

[22] = tested on: Escherichia coli 4; assay: In vitro MIC, Broth Dilution Method; assay type: cell-based
Protocol: as §2

[23] = tested on: Klebsiella pneumoniae A; assay: In vitro MIC, Broth Dilution Method; assay type: cell-based; conditions: read-out: In Vitro MIC
Protocol: as §2

[24] = tested on: Staphylococcus aureus ATCC 29213; assay: In vitro MIC, Broth Dilution Method; assay type: cell-based
Protocol: as §2

[25] = tested on: Staphylococcus aureus Smith; assay: In vitro MIC, Broth Dilution Method; assay type: cell-based; conditions: read-out: In Vitro MIC
Protocol: as §2

[26] = tested on: Pseudomonas aeruginosa Stone 130; assay: In vitro MIC, Broth Dilution Method; assay type: cell-based
Protocol: as §2

[27] = stability of the product (remark in the preparation); assay type: physicochemical; conditions: remark on the isolated product
[28] = Agar Well Diffusion Method, Streptococcus aureus 82, read-out: In Vitro MIC
[29] = Agar Well Diffusion Method, Serratia marcescens SM
[30] = Agar Well Diffusion Method, Proteus vulgaris 101N
[31] = Agar Well Diffusion Method, Pseudomonas aeruginosa B
[32] = Agar Well Diffusion Method, Klebsiella pneumoniae 369, read-out: In Vitro MIC
[33] = ATCC8043, Agar Well Diffusion Method, Streptococcus faecium ATCC 8043, read-out: In Vitro MIC
[34] = Agar Well Diffusion Method, Enterobacter cloacae 2952B
[35] = Agar Well Diffusion Method, Escherichia coli 1269B
[36] = Agar Well Diffusion Method, Micrococcus luteus PCl
[37] = Agar Well Diffusion Method, Pseudomonas aeruginosa 56, read-out: In Vitro MIC
[38] = Broth Dilution Method, Enterobacter cloacae 5699, read-out: In Vitro MIC
[39] = Broth Dilution Method, Serratia marcescens SM
[40] = Broth Dilution Method, Proteus mirabilis 2, read-out: In Vitro MIC
[41] = Broth Dilution Method, Proteus mirabilis 90, read-out: In Vitro MIC
[42] = Broth Dilution Method, Escherichia coli 4, read-out: In Vitro MIC
[43] = Broth Dilution Method, Klebsiella pneumoniae A
[44] = ATCC29213, Broth Dilution Method, Staphylococcus aureus ATCC 29213, read-out: In Vitro MIC
[45] = Broth Dilution Method, Staphylococcus aureus Smith
[46] = STONE130, Broth Dilution Method, Pseudomonas aeruginosa Stone 130, read-out: In Vitro MIC
[47] = Broth Dilution Method, Streptococcus pneumoniae 6301, read-out: In Vitro MIC
[48] = Proteus mirabilis, 2, read-out: In Vitro MIC
[49] = Escherichia coli, 4, read-out: In Vitro MIC
[50] = Enterobacter cloacae, 5699, read-out: In Vitro MIC
[51] = Proteus mirabilis, 90, read-out: In Vitro MIC
[52] = Pseudomonas aeruginosa, STONE130, read-out: In Vitro MIC

Row | SMILES | MIC [1, 28] [µg/mL] | MIC [2, 29] [µg/mL] | MIC [3, 30] [µg/mL] | MIC [4, 31] [µg/mL] | MIC [5, 32] [µg/mL] | MIC [6, 33] [µg/mL] | MIC [7, 34] [µg/mL] | MIC [8, 35] [µg/mL] | MIC [9, 36] [µg/mL] | MIC [10, 37] [µg/mL] | MIC [11] [µg/mL] | MIC [12, 38] [µg/mL] | MIC [13, 39] [µg/mL] | MIC [16, 41] [µg/mL] | MIC [17] [µg/mL] | MIC [18] [µg/mL] | MIC [19] [µg/mL] | MIC [20] [µg/mL] | MIC [21] [µg/mL] | MIC [24, 44] [µg/mL] | further results
1 | CCn1cc(C(=O)OC)c(=O)c2cc(F)c(N3CCN(C=N[C@@H]4C(=O)N5[C@@H]4SC(C)(C)[C@@H]5C(=O)O)CC3)cc21 [Compound A] | 7.8 (≈ 13.9 µM) | 250 (≈ 447 µM) | 62.5 (≈ 112 µM) | 250 (≈ 447 µM) | 125 (≈ 223 µM) | 250 (≈ 447 µM) | 62.5 (≈ 112 µM) | 62.5 (≈ 112 µM) | 31.3 (≈ 55.9 µM) | 500 (≈ 893 µM) | 4 (≈ 7.15 µM) | 8 (≈ 14.3 µM) | 16 (≈ 28.6 µM) | 32 (≈ 57.2 µM) | 32 (≈ 57.2 µM) | 8 (≈ 14.3 µM) | 4 (≈ 7.15 µM) | > 128 | 32 (≈ 57.2 µM) | 16 (≈ 28.6 µM) | MIC ([14]; Streptococcus pneumoniae, 6301, read-out: In Vitro MIC): 1 µg/mL (≈ 1.79 µM); MIC [15, 40]: 8 µg/mL (≈ 14.3 µM); MIC [22, 42]: 8 µg/mL (≈ 14.3 µM); MIC [23, 43]: 16 µg/mL (≈ 28.6 µM); MIC [25, 45]: 2 µg/mL (≈ 3.57 µM); MIC [26, 46]: 64 µg/mL (≈ 114 µM)
2 | CC1(C)S[C@@H]2[C@H](N=CN3CCN(c4c(F)cc5c(=O)c(C(=O)O)cn(CCF)c5c4F)CC3)C(=O)N2[C@H]1C(=O)O [Compound D, 2R-(2α,5α,6β)]-7-[4-[[(2-Carboxy-3,3-dimethyl-7-oxo-4-thia-1-azabicyclo[3.2.0]hept-6-yl)amino]-methylene]-1-piperazinyl]-6,8-difluoro-1-(2-fluoroethyl)-1,4-dihydro-4-dihydro-4-oxo-3-quinoline-carboxylic acid monosodium salt] | 3.9 | 31.3 | 1.95 | 15.6 | 7.8 | 15.6 | 7.8 | 1.95 | 15.6 | 7.8 | 0.125 | 0.25 | 0.25 | 1 | 32 | 0.125 | 0.063 | 2 | 1 | 4 | MIC [14, 47]: 2 µg/mL; MIC [15, 48]: 0.125 µg/mL; MIC [22, 49]: 0.125 µg/mL; MIC ([23]; Klebsiella pneumoniae): 0.125 µg/mL; MIC ([25]; Staphylococcus aureus): 0.5 µg/mL; MIC [26, 46]: 4 µg/mL
3 | CCn1cc(C(=O)[O-])c(=O)c2cc(F)c(N3CCN(C=N[C@H]4CN(S(=O)(=O)[O-])C4=O)CC3)cc21.[Na+].[Na+] [Compound E, (S)-1-Ethyl-6-fluoro-1,4-dihydro-4-oxo-7-[4-[[(1-sulfo-2-oxo-3-azetidinyl)imino]methyl]-1-piperazinyl]-3-quinolinecarboxylic acid disodium salt] | – | – | – | – | – | – | – | – | – | – | 0.063 | – | – | – | – | 0.063 | 0.031 | – | – | – | MIC ([1]; Streptococcus, 82, read-out: In Vitro MIC): 15.6 µg/mL; MIC ([2]; Serratia marcescens): 3.9 µg/mL; MIC ([3]; Proteus vulgaris, 101N): 1.95 µg/mL; MIC ([4]; Pseudomonas aeruginosa): 3.9 µg/mL; MIC ([5]; Klebsiella pneumoniae, 369, read-out: In Vitro MIC): 3.9 µg/mL; MIC ([6]; ATCC8043, read-out: In Vitro MIC): > 125 µg/mL; MIC ([7]; Enterobacter cloacae, 2952B): 31.3 µg/mL; MIC ([8]; Escherichia coli, 1269B): 7.8 µg/mL; MIC ([9]; Micrococcus luteus): > 125 µg/mL; MIC ([10]; Pseudomonas aeruginosa, 56, read-out: In Vitro MIC): 7.8 µg/mL; MIC [12, 50]: 0.125 µg/mL; MIC ([13]; Serratia marcescens): 0.063 µg/mL; MIC [15, 48]: 0.063 µg/mL; MIC [16, 51]: 0.063 µg/mL; MIC [22, 49]: 0.125 µg/mL; MIC ([23]; Klebsiella pneumoniae): 0.125 µg/mL; MIC ([24]; Staphylococcus aureus, ATCC29213, read-out: In Vitro MIC): 2 µg/mL; MIC ([25]; Staphylococcus aureus): 0.5 µg/mL; MIC [26, 52]: 1 µg/mL
4 | CCn1cc(C(=O)O)c(=O)c2cc(F)c(N3CCCN(C=N[C@@H]4C(=O)N5[C@@H]4SC(C)(C)[C@@H]5C(=O)O)CC3)cc21 [Compound G, [2S-(2α,5α,6β)]-7-[4-[[)2-Carboxy-3,3-dimethyl-7-oxo-4-thia-1-azabicyclo[3.2.0]hept-6-yl)-imino]methyl]hexahydro-1H-1,4-diazepin-1-yl]-1-ethyl-6-fluoro-1,4-dihydro-4-oxo-3-quinolinecarboxylic acid disodium salt] | 50 | 50 | 50 | 50 | 100 | > 400 | 100 | 50 | 25 | 100 | 1 | 2 | 2 | 8 | 64 | 2 | 1 | 16 | 8 | 16 | MIC [14, 47]: 2 µg/mL; MIC [15, 48]: 4 µg/mL; MIC [22, 42]: 2 µg/mL; MIC [23, 43]: 2 µg/mL; MIC [25, 45]: 2 µg/mL; MIC [26, 46]: 8 µg/mL
5 | CCn1cc(C(=O)O)c(=O)c2cc(F)c(N3CCN(C=N[C@@H]4C(=O)N5[C@@H]4SC(C)(C)[C@@H]5C(=O)O)CC3)nc21 [Compound H, disodium salt] | 7.8 | 31.3 | 7.8 | 15.6 | 7.8 | 125 | 31.3 | 7.8 | 31.3 | 15.6 | 0.125 | – | 0.5 | – | 8 | 0.125 | 0.125 | 8 | 0.5 | 0.5 | stability [27]: very unstable; MIC [12, 50]: 0.125 µg/mL; MIC [14, 47]: 2 µg/mL; MIC [15, 40]: 0.5 µg/mL; MIC [16, 51]: 1 µg/mL; MIC [22, 49]: 0.125 µg/mL; MIC [23, 43]: 0.25 µg/mL; MIC [25, 45]: 0.5 µg/mL; MIC [26, 52]: 1 µg/mL
